Key:
[1] = test system: E. coli NCTC1110; test: In vitro antibacterial assay for liquid copper solutions (turbidimetric E. coli growth inhibition); assay type: cell-based
Method: Preparation of Copper Complexes with EDTA, Maltol and Ethyl Maltol for Antimicrobial Testing
Cu-EDTA complexes were freshly prepared by dissolving CuCl2.2H2O and disodium ethylenediaminetetraacetate (EDTA) di-hydrate in UHP water. The pH was adjusted to 7.5±0.2 with 1M NaOH. Various Cu:EDTA ratios were achieved by maintaining concentration copper at 20 mM (ca. 1270 ppm), whilst changing that of EDTA—20 and 200 mM—thus achieving Cu-EDTA ratios of 1:1 and 1:10, respectively.
CuMaltol (ratio 1:1) was prepared by mixing equivalent volumes of 100 mM CuCl2.2H2O solution with an alkaline (pH>11) 100 mM maltol solution and quickly diluting the mixture to 10 mM Cu (final pH of 5.7).
Cu Ethylmaltol (ratio 1:1) was prepared by mixing appropriate volumes of 80 mM CuCl2.2H2 O solution with an alkaline (pH>10.5) 20 mM ethylmaltol solution and quickly diluting the mixture to 10 mM Cu and 10 mM ethylmaltol (final pH of 7.2).
CuMaltol (ratio 1:4) was prepared by mixing appropriate volumes of 80 mM CuCl2.2H2O solution with an alkaline (pH>10.5) 60 mM maltol solution and quickly diluting the mixture to 10 mM Cu and 40 mM maltol (final pH of 8.5).
Cu Ethylmaltol (ratio 1:4) was prepared by mixing appropriate volumes of 80 mM CuCl2.2H2O solution with an alkaline (pH>10.5) 60 mM ethylmaltol solution and quickly diluting the mixture to 10 mM Cu and 40 mM ethylmaltol (final pH of 8.5).
Heavy Metal MOPS (HMM) Medium, pH 7.2±0.2.
HMM is a defined medium developed for testing heavy metals and here was supplemented with glucose and cas-amino acids (acid hydrolysate of casein) and optionally with 4% BSA. HMM was prepared from concentrated stock solutions of each reagent, and pH adjusted to 7.2±0.2 (Table 1). Freshly prepared medium was immediately filtered through a 0.22 micron membrane and stored at 4±2° C.
In Vitro Antibacterial Assay for Liquid Copper Solutions
Antimicrobial activity was assessed through determination of E. coli NCTC1110 growth inhibition in the presence of copper compounds. A turbidimetric assay was used to follow bacterial concentration over time as this is proportional to optical density (OD at 595 nm) in liquid medium. Bacterial cultures were grown overnight in HMM at 30° C. under constant shaking (80 rpm). On the day of the assay, the OD of the bacterial suspension was measured at 595 nm on a plate reader and diluted in HMM to achieve an OD of 0.05. […] Final copper concentrations in the assay ranged between 0.4 and 50 ppm, and OD was measured every hour for a typical period of 6 to 8 hours. OD background, i.e. OD absorbance not caused by bacteria, was determined to remove readout interference from copper and broth. Growth inhibition was calculated as follows: […]

[2] = Exemplification of redox protection (copper maltol degradation to cuprous hydroxide); assay type: physicochemical; conditions: pH 11.8 with sodium hydroxide; overnight (A) / several days (B, 30% (w/w) PEG)
Method: Exemplification of Redox Protection
A 40 mM copper stock was prepared by dissolving 0.347 g copper chloride dihydrate in 50 mL water. The resulting solution was blue.
A 160 mM maltol stock was prepared by dissolving 1.01 g maltol in 50 mL water and pH adjusting with NaOH (pH>10.5. This produced a clear solution.
Experiment A: Copper Maltol Degradation
The copper and maltol stocks were mixed in water at 1:1 ratios (v:v) producing a green solution. pH was then adjusted to 11.8 with sodium hydroxide to accelerate redox conversion.
Experiment B: Copper Maltol-PEG Assemblies Prevent Redox Conversion
Same as experiment A but 30% (w/w) PEG was added.

## O=C([O-])CN(CCN(CC(=O)[O-])CC(=O)O)CC(=O)O.[Cu+2] [copper EDTA, reference compound]
[1]; HMM pH 7.2, 6 hours, Cu:EDTA 1:1 and 1:10
  antibacterial action against E. coli (FIG. 1): significantly suppressing its antibacterial action

## [Cl][Cu][Cl] [copper chloride, reference compound]
[1]; bacterial media (HMM) comprising 4% BSA, 50 ppm copper, 6 hours
  E. coli growth inhibition: 60%

## Copper ethylmaltol
[1]; HMM with 4% BSA, 6 hours, ratios 1:1 and 1:4
  antimicrobial properties in protein-rich environments: retained

## copper maltol
[1]; bacterial media (HMM) comprising 4% BSA, 40 ppm copper, 6 hours
  suppression of E. coli growth: completely suppressed
[2]
  redox conversion of Cu2+ to cuprous hydroxide (red precipitate): a red precipitate (cuprous hydroxide) deposited

Source: patent US11000502B2, “Antimicrobial compositions comprising copper-hydroxypyrone complexes” (United Kingdom Research and Innovation, priority 2017, dated 2021)
